Test results: PMC4774911, “Biochemical Screening of Five Protein Kinases from Plasmodium falciparum against 14,000 Cell-Active Compounds” (PLoS ONE, 2016)
Values joined by “and” are separate entries in the source; they are usually repeats but may differ in a detail not shown here. Equal values may be shown once.

What was measured:
ACVR2B = ACVR2B (Homo sapiens, UniProt Q13705); test: biochemical
PIP4K2C = target: T1, PIP4K2C (Homo sapiens, UniProt Q8TBX8); test: biochemical
T1 sequence (Q8TBX8 1-421): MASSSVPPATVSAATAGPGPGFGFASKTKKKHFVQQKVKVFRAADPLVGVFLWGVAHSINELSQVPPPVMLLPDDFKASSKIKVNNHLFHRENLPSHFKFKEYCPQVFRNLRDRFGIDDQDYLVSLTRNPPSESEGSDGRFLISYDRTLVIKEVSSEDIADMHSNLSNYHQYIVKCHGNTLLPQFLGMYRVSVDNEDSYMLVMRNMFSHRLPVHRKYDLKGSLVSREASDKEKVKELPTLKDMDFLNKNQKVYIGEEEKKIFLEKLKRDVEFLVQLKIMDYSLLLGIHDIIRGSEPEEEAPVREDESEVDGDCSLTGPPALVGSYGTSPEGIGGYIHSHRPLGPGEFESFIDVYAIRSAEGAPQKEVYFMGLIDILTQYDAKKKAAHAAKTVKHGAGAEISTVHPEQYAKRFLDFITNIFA

ULK1 = target: T2, ULK1 (Homo sapiens, UniProt O75385); test: biochemical
T2 sequence (O75385 1-1050): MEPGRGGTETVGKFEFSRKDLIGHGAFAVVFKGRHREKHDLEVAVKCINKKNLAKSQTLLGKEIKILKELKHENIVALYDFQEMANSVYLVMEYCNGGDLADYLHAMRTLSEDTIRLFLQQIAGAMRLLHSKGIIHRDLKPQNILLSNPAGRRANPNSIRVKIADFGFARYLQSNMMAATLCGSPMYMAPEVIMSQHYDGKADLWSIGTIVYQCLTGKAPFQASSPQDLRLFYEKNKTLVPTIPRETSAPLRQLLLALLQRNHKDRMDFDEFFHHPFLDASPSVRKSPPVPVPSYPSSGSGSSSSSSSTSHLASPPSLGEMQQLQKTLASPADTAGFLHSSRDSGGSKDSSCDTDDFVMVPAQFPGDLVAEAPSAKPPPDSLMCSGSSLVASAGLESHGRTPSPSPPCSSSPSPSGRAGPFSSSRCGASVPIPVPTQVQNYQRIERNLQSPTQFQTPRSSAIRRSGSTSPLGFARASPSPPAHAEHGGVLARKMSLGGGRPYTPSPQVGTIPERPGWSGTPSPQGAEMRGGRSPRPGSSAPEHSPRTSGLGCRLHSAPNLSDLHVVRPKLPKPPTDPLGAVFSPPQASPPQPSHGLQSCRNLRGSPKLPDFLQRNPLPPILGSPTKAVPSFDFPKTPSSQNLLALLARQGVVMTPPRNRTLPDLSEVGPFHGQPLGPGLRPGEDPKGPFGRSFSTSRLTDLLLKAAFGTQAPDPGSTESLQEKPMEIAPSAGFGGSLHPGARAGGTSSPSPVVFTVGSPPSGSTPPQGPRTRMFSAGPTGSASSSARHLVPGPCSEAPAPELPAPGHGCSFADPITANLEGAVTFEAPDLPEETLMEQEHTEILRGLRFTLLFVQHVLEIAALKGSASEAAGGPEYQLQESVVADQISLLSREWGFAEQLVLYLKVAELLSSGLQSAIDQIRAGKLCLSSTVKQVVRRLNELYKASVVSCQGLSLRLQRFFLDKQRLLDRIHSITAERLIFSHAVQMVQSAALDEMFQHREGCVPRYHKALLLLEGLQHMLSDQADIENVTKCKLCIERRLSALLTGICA

NLK = target: T3, NLK (Homo sapiens, UniProt Q9UBE8); test: biochemical
T3 sequence (Q9UBE8 1-527): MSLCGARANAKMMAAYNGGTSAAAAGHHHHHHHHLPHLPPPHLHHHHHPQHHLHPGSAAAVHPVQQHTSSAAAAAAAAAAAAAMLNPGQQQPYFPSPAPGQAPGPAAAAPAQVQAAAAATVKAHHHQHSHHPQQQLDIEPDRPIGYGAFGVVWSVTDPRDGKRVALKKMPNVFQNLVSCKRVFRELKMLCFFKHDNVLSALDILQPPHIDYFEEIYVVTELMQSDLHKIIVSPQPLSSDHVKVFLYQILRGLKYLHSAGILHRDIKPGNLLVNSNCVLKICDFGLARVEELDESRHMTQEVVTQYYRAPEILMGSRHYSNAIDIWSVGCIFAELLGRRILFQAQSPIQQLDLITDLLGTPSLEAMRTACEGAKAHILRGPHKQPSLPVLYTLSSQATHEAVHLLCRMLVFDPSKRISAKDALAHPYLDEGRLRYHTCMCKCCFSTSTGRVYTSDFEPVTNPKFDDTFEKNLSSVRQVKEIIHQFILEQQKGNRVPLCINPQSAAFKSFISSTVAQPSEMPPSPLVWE

ABL1 = test: biochemical; set-up: species or system human, K562 (extract); replicate k of n = 2 (each experiment ID is one independent experiment; two experiment IDs per compound); details: human; read-out: KDapp
LOC100128443 = test: biochemical; set-up: species or system human, K562 (extract); replicate k of n = 2 (each experiment ID is one independent experiment; two experiment IDs per compound); details: human; read-out: KDapp
PKG = PKG (Plasmodium falciparum, UniProt Q8I719); test: PKG IC50 (supplementary data file); format: biochemical
From the text: Supplement pone.0149996.s003.xls, sheet "combined_1_sorted"

3D7 PFLDH = tested on: 3D7 PFLDH; set-up: method as in F.J. Gamo et al., Nature 2010; concentration or dose not given beside the values; details: downloaded from ChEMBL, ref F.J. Gamo et al., Nature 2010; cited from earlier work
PRKDC = PRKDC (Homo sapiens, UniProt P78527); test: biochemical
PRKDC, sequence (P78527 whole entry): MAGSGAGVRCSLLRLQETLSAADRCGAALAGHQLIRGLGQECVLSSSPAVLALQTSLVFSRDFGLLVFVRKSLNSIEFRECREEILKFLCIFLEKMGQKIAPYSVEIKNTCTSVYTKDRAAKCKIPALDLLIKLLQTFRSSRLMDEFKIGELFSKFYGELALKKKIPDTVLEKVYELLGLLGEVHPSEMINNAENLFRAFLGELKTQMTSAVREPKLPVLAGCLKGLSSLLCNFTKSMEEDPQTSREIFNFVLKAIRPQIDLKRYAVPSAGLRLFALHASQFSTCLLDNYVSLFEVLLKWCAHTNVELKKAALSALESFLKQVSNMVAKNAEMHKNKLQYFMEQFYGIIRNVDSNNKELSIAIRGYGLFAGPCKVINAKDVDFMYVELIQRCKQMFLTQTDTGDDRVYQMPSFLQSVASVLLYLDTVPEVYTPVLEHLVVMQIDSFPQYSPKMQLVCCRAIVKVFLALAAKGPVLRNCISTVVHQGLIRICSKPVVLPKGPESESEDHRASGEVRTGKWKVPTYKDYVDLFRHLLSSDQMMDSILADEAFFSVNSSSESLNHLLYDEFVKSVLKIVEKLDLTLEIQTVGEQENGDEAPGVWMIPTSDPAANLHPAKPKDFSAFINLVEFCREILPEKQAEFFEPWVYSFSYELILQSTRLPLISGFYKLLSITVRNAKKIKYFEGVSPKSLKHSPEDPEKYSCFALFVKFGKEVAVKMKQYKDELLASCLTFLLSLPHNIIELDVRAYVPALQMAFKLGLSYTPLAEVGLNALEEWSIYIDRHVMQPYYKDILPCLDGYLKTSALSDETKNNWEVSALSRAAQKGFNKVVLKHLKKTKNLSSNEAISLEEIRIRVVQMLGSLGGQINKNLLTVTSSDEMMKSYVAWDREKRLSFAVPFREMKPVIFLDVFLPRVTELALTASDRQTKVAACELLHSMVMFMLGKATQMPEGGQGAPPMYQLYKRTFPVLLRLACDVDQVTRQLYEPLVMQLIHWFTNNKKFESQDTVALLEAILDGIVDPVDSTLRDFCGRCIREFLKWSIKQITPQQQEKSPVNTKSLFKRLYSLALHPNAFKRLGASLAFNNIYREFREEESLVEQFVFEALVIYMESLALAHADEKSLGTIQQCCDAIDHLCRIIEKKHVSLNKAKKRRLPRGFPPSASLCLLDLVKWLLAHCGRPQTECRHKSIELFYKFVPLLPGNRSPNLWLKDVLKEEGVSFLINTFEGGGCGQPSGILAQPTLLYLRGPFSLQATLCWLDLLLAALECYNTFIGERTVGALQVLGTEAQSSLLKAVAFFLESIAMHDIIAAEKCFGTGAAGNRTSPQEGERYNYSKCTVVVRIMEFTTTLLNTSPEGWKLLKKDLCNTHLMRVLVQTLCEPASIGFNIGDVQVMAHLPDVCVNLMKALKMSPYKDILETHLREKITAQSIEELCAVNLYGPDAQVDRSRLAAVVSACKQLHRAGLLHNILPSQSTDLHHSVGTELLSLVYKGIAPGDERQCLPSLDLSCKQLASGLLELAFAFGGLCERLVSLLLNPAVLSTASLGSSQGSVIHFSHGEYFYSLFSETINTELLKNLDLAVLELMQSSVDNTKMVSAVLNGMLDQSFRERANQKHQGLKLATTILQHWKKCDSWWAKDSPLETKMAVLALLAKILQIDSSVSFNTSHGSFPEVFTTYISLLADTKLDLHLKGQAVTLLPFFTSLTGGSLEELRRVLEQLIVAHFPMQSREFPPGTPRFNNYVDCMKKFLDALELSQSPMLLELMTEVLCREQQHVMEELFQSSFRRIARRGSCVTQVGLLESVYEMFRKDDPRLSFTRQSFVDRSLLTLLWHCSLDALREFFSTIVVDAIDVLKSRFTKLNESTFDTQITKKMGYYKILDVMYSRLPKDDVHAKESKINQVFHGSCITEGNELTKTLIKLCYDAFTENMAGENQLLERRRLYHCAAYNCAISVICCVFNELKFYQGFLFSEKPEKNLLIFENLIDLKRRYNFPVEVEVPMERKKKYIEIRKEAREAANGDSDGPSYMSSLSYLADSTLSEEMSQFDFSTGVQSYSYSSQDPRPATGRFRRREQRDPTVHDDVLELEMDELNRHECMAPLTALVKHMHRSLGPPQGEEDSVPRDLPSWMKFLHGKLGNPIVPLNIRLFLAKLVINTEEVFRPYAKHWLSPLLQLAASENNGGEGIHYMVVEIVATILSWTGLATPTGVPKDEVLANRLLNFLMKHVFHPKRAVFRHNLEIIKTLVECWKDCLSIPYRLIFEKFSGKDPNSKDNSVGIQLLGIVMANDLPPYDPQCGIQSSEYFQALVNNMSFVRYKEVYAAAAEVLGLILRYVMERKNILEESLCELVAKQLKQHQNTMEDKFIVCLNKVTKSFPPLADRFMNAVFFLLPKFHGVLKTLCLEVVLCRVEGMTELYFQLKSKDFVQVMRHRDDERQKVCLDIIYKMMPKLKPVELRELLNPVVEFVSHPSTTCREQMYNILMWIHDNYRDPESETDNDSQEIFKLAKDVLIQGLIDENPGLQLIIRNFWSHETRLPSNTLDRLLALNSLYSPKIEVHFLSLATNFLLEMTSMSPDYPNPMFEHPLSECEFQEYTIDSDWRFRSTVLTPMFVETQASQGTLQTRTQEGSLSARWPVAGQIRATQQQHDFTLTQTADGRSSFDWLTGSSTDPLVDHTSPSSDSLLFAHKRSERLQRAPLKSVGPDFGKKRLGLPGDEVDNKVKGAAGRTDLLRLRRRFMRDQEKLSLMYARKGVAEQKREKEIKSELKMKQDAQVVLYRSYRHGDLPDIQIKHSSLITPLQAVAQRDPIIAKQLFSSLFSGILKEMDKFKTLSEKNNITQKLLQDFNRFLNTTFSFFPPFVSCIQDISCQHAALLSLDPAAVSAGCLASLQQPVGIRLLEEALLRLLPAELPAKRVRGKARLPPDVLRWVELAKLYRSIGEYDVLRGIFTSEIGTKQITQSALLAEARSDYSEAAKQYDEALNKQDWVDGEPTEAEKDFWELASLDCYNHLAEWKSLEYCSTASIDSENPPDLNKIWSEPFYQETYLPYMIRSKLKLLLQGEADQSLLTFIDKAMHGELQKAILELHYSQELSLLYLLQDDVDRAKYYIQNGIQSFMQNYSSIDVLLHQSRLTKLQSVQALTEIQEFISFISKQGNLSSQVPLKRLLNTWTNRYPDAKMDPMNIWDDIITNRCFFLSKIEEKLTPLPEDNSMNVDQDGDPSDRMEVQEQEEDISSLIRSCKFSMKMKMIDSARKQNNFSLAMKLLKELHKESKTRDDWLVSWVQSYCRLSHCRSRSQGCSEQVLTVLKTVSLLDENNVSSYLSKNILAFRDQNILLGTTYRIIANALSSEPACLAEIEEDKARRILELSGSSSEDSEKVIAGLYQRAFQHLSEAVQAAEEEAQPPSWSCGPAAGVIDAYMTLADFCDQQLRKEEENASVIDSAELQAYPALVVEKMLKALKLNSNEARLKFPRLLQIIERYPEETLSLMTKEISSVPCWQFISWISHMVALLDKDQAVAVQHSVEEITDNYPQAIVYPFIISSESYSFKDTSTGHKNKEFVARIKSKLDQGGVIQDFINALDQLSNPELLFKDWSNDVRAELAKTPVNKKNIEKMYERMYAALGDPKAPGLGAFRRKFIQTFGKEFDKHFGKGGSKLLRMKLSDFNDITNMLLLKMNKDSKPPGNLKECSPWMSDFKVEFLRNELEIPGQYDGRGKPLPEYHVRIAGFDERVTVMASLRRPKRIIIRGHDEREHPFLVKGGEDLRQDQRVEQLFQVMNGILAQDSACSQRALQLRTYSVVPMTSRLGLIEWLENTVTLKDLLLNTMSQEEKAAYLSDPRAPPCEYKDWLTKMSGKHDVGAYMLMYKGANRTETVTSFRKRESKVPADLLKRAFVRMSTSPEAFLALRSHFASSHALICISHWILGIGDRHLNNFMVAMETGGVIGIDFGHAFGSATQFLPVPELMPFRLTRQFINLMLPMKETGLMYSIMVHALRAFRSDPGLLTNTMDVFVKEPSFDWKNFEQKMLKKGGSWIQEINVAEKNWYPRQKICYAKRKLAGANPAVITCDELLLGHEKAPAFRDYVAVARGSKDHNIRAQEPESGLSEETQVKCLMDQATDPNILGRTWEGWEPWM

ACVR2B, sequence (Q13705 whole entry): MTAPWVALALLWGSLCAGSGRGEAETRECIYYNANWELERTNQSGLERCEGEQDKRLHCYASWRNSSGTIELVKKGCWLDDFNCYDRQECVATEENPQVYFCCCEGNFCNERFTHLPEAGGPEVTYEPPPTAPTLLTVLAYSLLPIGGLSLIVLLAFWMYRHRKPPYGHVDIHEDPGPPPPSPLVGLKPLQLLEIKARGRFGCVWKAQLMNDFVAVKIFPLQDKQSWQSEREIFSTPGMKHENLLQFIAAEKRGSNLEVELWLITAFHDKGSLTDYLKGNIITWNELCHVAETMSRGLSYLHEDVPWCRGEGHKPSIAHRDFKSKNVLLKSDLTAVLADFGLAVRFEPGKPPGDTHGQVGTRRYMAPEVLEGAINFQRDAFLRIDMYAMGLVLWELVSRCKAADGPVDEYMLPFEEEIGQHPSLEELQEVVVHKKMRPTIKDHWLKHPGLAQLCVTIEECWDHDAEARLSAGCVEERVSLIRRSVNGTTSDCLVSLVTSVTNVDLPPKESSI

Compound | IC50 (ACVR2B) | IC50 (PIP4K2C) | IC50 (ULK1) | IC50 (NLK) | Kd (ABL1) | Kd (LOC100128443) | IC50 (PKG) | PCT_INHIB_3D7_PFLDH (3D7 PFLDH) | IC50 (PRKDC)
CN1CCN(c2ccc(Nc3ncc(C#N)c(Nc4ccccc4C(N)=O)n3)cc2)CC1.Cl [TCMDC-134116] | > 20000 nM | 970 nM and 1000 nM | 160 nM | 1600 nM and 1500 nM | 58.6 nM | 199 nM | 103 nM | 0% | –
Cl.NCC1(c2nc(-c3ccc(Cl)c(O)c3)c(-c3ccncc3)[nH]2)CCCCC1 [TCMDC-141154] | – | > 20000 nM | > 20000 nM | – | – | – | – | – | > 20000 nM
CN(C)CC(O)COc1ccc(Nc2ncc([N+](=O)[O-])c(Nc3ccccc3O)n2)cc1.O=C(O)C(F)(F)F (centres unmarked) [TCMDC-141399] | > 20000 nM | – | – | > 20000 nM | – | – | – | – | > 20000 nM
